Assay: Zinc dissolution and precipitation in solutions of different pH (naked eye and microscope)
Assay type: physicochemical
Details: FIGS. 7A-7C
Procedure: Zinc dissolution in acidic solution and zinc precipitation or crystallization in neutral or basic solution is shown in the photographs in FIGS. 7A-7C. The tests were carried out by the application of zinc into solutions.

## [Zn+2] [zinc]
Acidic conditions
  solubility of zinc in solution: generally soluble
Neutral and basic conditions
  solubility of zinc in solution: tends to crystallize or precipitate

— US20180071238A1, “Compositions and Methods for Traumatized Tissues Using Zinc Chelators” (Ohio University, priority 2015, published 2018)
